Tests used:
[1] = system: IL-2; assay: IL-2 content of cell supernatants after PHA or SEB stimulation (Tests H); details: following stimulation with PHA or SEB; FIGS. 2 and 3
[2] = system: human blood cells; assay: human blood cells, proliferation and expression of membrane markers (Tests H); assay type: cell-based; details: for proliferation of the blood cells of the immune response: 24 or 48 hours at 37° C.
[3] = system: lymphoblasts; details: serious immune disorders; FR 2 510 580 A, FR 2 597 751 A, Lin et al. 2001; cited from earlier work
[4] = system: leukoblasts; assay: antiblastic effect, activity against cancers and leukemias (method not described)
[5] = side effects on topical, oral or injected administration (method not described); details: administered topically, orally or by injection

SMILES	IL-2 production [1]	antibody production for the B lymphocytes [2]	class II MHCs for dendritic cells [2]	proliferation of the blood cells of the immune response [2]	effect on lymphoblasts formed in hyperplasia [3]	activity against certain acute cancers and leukemias (antiblastic effect) and chronic myeloid leukemia [4]	harmful side effects [5]
COc1cc(OC2OC(COC3OCC(O)C(O)C3O)C(O)C(O)C2O)c2c(=O)cc(-c3ccc(O)cc3)oc2c1 [Ex. 2, 5-O-β-D-primeverosyl-genkwanin]	inhibition	decrease	decrease	do not induce proliferation			
COc1cc(O[C@@H]2O[C@H](CO[C@@H]3OC[C@@H](O)[C@H](O)[C@H]3O)[C@@H](O)[C@H](O)[C@H]2O)c2c(=O)cc(-c3ccc(O)cc3)oc2c1 [5-O-β-D-primeverosyl-genkwanin]					destroys the lymphoblasts formed		
CCOc1ccc(C2CC(=O)c3c(cc(OC)cc3OC3OC(COC4OC(CO)C(O)C(O)C4O)C(O)C(O)C3O)O2)cc1 [Ex. 5, 2,3-dihydro-5-[O-6-(D-gluocpyranosyl)-β-D-glucopyranosyl]oxy-2-(4-ethoxyphenyl)-7-methoxy-4H-1-benzopyran-4-one]	inhibition	decrease	decrease	do not induce proliferation			
CCOc1ccc(-c2cc(=O)c3c(OC4OC(COC5OC(CO)C(O)C(O)C5O)C(O)C(O)C4O)cc(OC)cc3o2)cc1 [Ex. 8, 5-[O-6-(D-glucopyranosyl)-β-D-glucopyranosyl]oxy-2-(4-ethoxyphenyl)-7-methoxy-4H-1-benzopyran-4-one]						particularly active	virtual absence

— US7935672B2, “Derivatives of genkwanin and sakuranetin, cosmetic and therapeutic use thereof and preparation method of same” (priority 2004, dated 2011)
